Series [1] has as its target T1, Tyrosine-protein phosphatase non-receptor type 1 (Homo sapiens, UniProt P18031).
T1 sequence (P18031 whole entry): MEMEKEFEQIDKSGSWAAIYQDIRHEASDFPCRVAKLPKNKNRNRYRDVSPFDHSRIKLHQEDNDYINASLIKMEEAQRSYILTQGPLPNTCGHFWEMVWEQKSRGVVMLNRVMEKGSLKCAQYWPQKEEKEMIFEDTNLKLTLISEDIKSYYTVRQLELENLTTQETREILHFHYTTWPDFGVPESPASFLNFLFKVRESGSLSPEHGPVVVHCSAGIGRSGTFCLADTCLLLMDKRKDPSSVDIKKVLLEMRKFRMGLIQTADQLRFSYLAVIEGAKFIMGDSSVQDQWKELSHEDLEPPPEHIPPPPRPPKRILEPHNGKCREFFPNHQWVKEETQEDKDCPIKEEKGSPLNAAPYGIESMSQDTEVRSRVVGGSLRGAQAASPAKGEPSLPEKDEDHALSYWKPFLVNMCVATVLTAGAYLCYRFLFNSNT
Description: Inhibition of PTP1B.

Series [2] concerns the target T2, Tyrosine-protein phosphatase non-receptor type 2 (Homo sapiens, UniProt P17706).
T2 sequence (P17706 whole entry): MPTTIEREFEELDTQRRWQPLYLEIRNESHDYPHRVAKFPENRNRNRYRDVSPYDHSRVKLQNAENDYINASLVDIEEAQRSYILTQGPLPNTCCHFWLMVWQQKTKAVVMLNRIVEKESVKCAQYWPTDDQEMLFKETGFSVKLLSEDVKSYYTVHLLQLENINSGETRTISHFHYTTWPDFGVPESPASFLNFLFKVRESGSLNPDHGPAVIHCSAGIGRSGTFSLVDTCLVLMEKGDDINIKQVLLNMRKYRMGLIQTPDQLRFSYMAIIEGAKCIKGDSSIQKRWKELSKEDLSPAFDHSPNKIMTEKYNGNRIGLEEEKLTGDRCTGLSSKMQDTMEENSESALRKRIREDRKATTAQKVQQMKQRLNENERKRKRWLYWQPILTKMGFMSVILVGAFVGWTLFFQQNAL
Description: Inhibition of TCPTP.

A short description of series [3]: Permeability across human Caco-2 cell membrane. The class given is ADME, cell-based. The following applies: read-out: permeability. For orientation: Passage across Caco-2 layers is used to estimate intestinal permeability.
The subject of the next series is C2C12. As to the kind of experiment: Augmentation of insulin-stimulated 2-deoxy-D-glucose uptake in mouse C2C12 cells at 100 uM. Format: functional.
A short description of series [4]: Selectivity ratio of IC50 for TCPTP to IC50 for PTP1B.
Series [5] addresses T1, Tyrosine-protein phosphatase non-receptor type 1. Description: Inhibition of PTP1B by competitive inhibition assay.
The nature of series [6]: Selectivity ratio of Ki for TCPTP to Ki for PTP1B.
The target of series [7] is Receptor-type tyrosine-protein phosphatase beta (Homo sapiens, UniProt P23467). Description: Inhibition of human protein-tyrosine phosphatase beta.

From ChEMBL document CHEMBL1157711, “Recent advances in the discovery of competitive protein tyrosine phosphatase 1B inhibitors for the treatment of diabetes, obesity, and cancer” (J Med Chem, 2010) come the findings set out here.

Chain of Receptor-type tyrosine-protein phosphatase beta (P23467 whole entry): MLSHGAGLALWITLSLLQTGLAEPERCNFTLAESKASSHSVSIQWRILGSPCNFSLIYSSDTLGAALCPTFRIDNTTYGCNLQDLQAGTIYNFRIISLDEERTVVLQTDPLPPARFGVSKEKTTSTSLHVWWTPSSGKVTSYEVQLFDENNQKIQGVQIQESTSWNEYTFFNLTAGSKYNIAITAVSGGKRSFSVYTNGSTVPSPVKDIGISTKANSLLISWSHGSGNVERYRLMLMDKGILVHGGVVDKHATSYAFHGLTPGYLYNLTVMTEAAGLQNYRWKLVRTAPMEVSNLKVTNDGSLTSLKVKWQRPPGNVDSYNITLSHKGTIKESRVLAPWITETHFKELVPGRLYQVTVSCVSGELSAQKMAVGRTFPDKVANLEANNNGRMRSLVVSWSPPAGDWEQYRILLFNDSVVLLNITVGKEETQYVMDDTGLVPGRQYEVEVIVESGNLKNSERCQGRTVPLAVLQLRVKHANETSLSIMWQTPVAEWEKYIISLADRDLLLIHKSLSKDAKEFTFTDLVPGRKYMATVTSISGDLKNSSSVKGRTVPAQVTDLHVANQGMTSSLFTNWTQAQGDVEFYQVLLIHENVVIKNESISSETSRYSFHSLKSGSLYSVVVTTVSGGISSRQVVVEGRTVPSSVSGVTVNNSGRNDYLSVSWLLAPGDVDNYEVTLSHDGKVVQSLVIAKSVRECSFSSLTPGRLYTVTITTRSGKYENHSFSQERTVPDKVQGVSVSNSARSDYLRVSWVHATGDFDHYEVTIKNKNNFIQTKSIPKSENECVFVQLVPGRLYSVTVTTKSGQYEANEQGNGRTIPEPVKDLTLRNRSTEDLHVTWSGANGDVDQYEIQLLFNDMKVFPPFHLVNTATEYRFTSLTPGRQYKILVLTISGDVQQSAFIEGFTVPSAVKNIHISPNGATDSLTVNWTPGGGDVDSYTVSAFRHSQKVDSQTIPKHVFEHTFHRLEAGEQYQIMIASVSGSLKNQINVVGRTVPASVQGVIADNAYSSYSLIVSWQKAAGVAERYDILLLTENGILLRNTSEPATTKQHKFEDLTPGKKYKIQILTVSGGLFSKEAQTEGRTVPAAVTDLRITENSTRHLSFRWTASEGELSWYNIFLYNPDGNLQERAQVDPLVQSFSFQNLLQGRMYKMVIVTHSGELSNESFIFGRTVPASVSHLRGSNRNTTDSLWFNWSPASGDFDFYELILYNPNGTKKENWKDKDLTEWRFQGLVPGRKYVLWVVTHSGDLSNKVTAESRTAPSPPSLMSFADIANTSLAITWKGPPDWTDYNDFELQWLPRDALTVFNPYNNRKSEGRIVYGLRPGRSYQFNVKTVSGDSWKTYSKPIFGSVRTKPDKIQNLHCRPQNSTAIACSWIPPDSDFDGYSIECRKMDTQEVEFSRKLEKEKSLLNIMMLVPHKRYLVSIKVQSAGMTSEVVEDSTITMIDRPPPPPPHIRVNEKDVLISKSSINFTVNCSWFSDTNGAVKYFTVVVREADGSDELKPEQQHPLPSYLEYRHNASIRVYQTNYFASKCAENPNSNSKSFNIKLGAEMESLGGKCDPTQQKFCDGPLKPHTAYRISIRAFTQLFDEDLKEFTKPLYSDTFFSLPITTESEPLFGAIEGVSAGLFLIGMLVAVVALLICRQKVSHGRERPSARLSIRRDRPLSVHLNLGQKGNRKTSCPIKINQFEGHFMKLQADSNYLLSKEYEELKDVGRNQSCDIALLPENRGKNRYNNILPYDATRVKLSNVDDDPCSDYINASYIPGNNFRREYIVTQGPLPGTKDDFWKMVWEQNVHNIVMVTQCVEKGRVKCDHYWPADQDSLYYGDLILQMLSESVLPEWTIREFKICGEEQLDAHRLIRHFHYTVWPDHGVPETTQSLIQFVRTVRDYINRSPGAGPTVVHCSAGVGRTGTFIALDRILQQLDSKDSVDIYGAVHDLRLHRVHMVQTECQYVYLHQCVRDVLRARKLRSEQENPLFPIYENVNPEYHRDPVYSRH

Regarding `Cc1sc(-c2cccc(NC3CCN(S(=O)(=O)Cc4ccccc4)CC3)c2)cc1C1CC(=O)NS1(=O)=O` (centres undefined), the affinity in series [1], expressed as Ki, was 4300 nM.

`O=C1C[C@@H](c2ccc(C[C@H](Nc3nc4ccccc4s3)c3nc4ccccc4[nH]3)cc2F)S(=O)(=O)N1` showed an IC50 in series [2] of 250 nM. In the case of `CCc1cc(C[C@H](NC(C)=O)C(=O)NCCCCOc2cccc(O)c2C(=O)OC)ccc1N(C(=O)C(=O)O)c1ccccc1C(=O)O`, affinity in series [2] was put at a Ki of 65 nM. Turning to `Cc1cc(C[C@H](NS(=O)(=O)c2ccccc2)c2nc3ccccc3[nH]2)ccc1N1CC(=O)NS1(=O)=O`, the IC50 in series [2] is 150 nM. For `O=C(O)C(=O)Nc1sc2c(c1C(=O)O)CCN[C@H]2CNC(=O)c1cc2cc(F)ccc2[nH]1`, the Papp in series [3] is less than 1 ×10⁻⁶ cm/s. The same compound gave an Activity with C2C12 of 70%.

For `Cc1cc(CC(NS(=O)(=O)c2cccc(F)c2)C2=N[C@H](CCOc3ccccc3S(C)(=O)=O)CN2)ccc1C1CC(=O)NS1(=O)=O` (some centres undefined), the IC50 was 23 nM in series [1] and 25 nM in series [2]. In addition, the Ratio IC50 in series [4] is 1. In series [1], `CCC(CC)c1ccc(N(Cc2cccc(-c3ccc(COc4ccc(C[C@H](NC(C)=O)C(=O)O)cc4)cc3)c2)C(C)C)cc1` had an IC50 of 16 nM. For `O=S(=O)(O)C(F)(F)c1cccc(-c2ccc(-c3ccccc3)cc2)c1`, the IC50 in series [1] was determined as 8000 nM. As to `COc1cc(/C=C2\SC(=S)N(c3cccc(Cl)c3)C2=O)cc([N+](=O)[O-])c1O`, in series [5], the affinity corresponds to a Ki of 1800 nM. In addition, in series [4], the Ratio IC50 was 1.3. Turning to `COc1ccc2cc(O)c(N3CC(=O)NS3(=O)=O)cc2c1`, in series [1], the IC50 was less than 30 nM.

With `Cc1nc(-c2ccc(Cl)cc2)sc1CCc1cccc(C(O)(C(=O)O)C(F)(F)F)c1` (centres undefined), in series [1], 3200 nM corresponded to half-maximal inhibition (IC50). As to `CS(=O)(=O)OC1C(Cl)CCCC1Cc1ccc(N2CC(=O)CS2(=O)=O)c(O)c1` (centres undefined), the IC50 in series [1] stood at 12.6 nM. With `Cc1cc(C[C@H](NS(=O)(=O)c2ccccc2)c2nc3ccccc3[nH]2)ccc1[C@@H]1CC(=O)NS1(=O)=O`, half-maximal inhibition in series [2] (IC50) required 25 nM. With `O=C1CN(c2c(O)cc(CC3CCCCC3)cc2F)S(=O)(=O)C1`, the IC50 in series [1] worked out at 14 nM. With `NC(=O)[C@H](Cc1ccc(C(F)(F)P(=O)(O)O)cc1)NC(=O)[C@H](CC(=O)O)NC(=O)Cc1ccc(C(F)(F)P(=O)(O)O)cc1`, the Ki in series [2] stood at 26 nM. As to `COC(=O)c1c(O)cccc1OC/C=C/c1cccc(-c2onc(C(=O)O)c2N)c1`, the IC50 in series [2] was more than 30000 nM. For the compound `N#Cc1ccc2cc(Br)c(C(F)(F)P(=O)(O)O)cc2c1`, half-maximal inhibition in series [2] (IC50) required 120 nM. In series [1], `CN(CCCCCl)P(=O)(OCc1ccc([N+](=O)[O-])o1)C(F)(F)c1ccc(CC(=O)N[C@@H](CC(=O)O)C(=O)N[C@@H](Cc2ccc(C(F)(F)P(=O)(OCc3ccc([N+](=O)[O-])o3)N(C)CCCCCl)cc2)C(=O)ON)cc1` (some centres undefined) displayed an IC50 of more than 20000 nM.

In turn, `O=S(=O)(Nc1ccc(Oc2ccc(Oc3ccc(NS(=O)(=O)C(F)(F)F)cc3)cc2)cc1)C(F)(F)F` registered an IC50 in series [1] of 2500 nM. Consider `CN(C)S(=O)(=O)c1ccc(CN(Cc2ccc(C(F)(F)P(=O)(O)O)c(Br)c2)S(=O)(=O)c2ccc(OCC(=O)O)cc2)cc1`, for which the Ratio IC50 in series [4] was 1. The compound further registered an IC50 in series [2] of 28 nM. Turning to `COC(=O)c1c(O)cccc1OCCCCNC(=O)[C@H](Cc1ccc(OC(C(=O)O)C(=O)NC2CC2)cc1)NC(=O)OC(C)(C)C` (some centres undefined), the Ki in series [1] was 8400 nM; in series [2], more than 200000 nM. The Ratio Ki in series [6] is more than 23.

On to `CCc1csc([C@H](Cc2ccc(NS(=O)(=O)O)cc2)NC(=O)[C@H](CC(C)C)C(=O)OC)n1`, for which the figures for the IC50 in series [1] and in series [7] were 70 nM and 0.3 nM, respectively. On to `CNC(=O)[C@@H]1Cc2ccc(NS(=O)(=O)O)cc2CN1C(=O)CCc1cccc(NS(=O)(=O)O)c1`, for which the Ratio IC50 in series [4] was found to be 1.9. As for `Cc1ccccc1S(=O)(=O)N(Cc1ccc(C(=O)C(F)(F)P(=O)(O)O)cc1)Cc1ccc(C(=O)C(F)(F)P(=O)(O)O)cc1`, the IC50 in series [1] turned out to be 600 nM. Take `COC(=O)c1c(O)cccc1OCCCCNC(=O)[C@H](Cc1ccc(OCC(=O)O)c(O)c1)NC(C)=O`: the Ratio Ki in series [6] is 20. The Papp in series [3] was more than 10 ×10⁻⁶ cm/s.

The Ki is a dissociation constant, usually derived from enzyme kinetics or from competition with a known ligand. A low value points to a stronger hold on the target. A word on the IC50: it is the point on the concentration scale where inhibition reaches its midpoint. Higher therefore signals a need for much substance.
